# In article PMC2944806, “HLA Class I Binding of HBZ Determines Outcome in HTLV-1 Infection” (PLoS Pathogens, 2010):
# Biological target: HLA class I molecule B*3501 (Homo sapiens, UniProt P01889, A329T/A93T/A95T/C349S/D201E/D98Y/E176V/E187L/E204Q/E69T/I218V/K202T/L119I/Q94N/R155S/R180L/S121R/S35A/S48A/T118I/V127L/V306I/V36M/Y140S/Y91F)
# Test: REVEAL HLA-peptide binding assay, B*3501
# Conditions: assembly of peptide-HLA complex by ELISA with conformation-dependent anti-HLA antibody, relative to positive control peptide for that allele, comparable within an allele only
# Protocol: The REVEAL HLA-peptide binding assay (ProImmune Ltd., Oxford, UK) was used to quantify peptide-HLA binding. For each allele-peptide combination that was tested, assembly of peptide-HLA complexes was quantified by ELISA with a conformation-dependent anti-HLA antibody. Samples of assembling peptide-HLA complexes were taken at a defined time point and snap-frozen in liquid nitrogen prior to analysis. The assembly for each peptide-HLA complex was then compared against a positive control peptide for that allele as the percentage of assembled peptide relative to that control. We selected four HLA class I alleles and 50 HTLV-1 peptides for each allele. The allele choice was based on allele frequency in the Kagoshima database and included 2 A alleles and 2 B alleles as well as alleles for which we knew that the epitope prediction tended to be poor. The 50 HTLV-1 nonamer peptides for each allele were selected to represent a range of predicted binding affinities, from weak to strong binding peptides. They originated from 4 HTLV-1 reference strain proteins: Tax, HBZ, Gag and Polymerase.
# Note the binding score is with respect to a reference good binding peptide for each allele and therefore scores can be compared within an allele but not between alleles.
row,Sequence,"Score (experimentally measured binding affinity, % binding compared to control peptide)"
1,CPINYSLLA [HTLV-1 nonamer peptide],102.68%
2,CPLCQDPTH [HTLV-1 nonamer peptide],36.7%
3,DPILRSLAY [HTLV-1 nonamer peptide],72.18%
4,EEEKQIAEY [HTLV-1 nonamer peptide],8.99%
5,ELVDGLLSL [HTLV-1 nonamer peptide],0%
6,EPEEDALLL [HTLV-1 nonamer peptide],11.92%
7,EPEPEEDAL [HTLV-1 nonamer peptide],28.71%
8,EPGPSSYDF [HTLV-1 nonamer peptide],102.27%
9,FPQCTILQY [HTLV-1 nonamer peptide],103.38%
10,FPTQRTSKT [HTLV-1 nonamer peptide],81.35%
11,LASLLPKGY [HTLV-1 nonamer peptide],98.24%
12,LLQEKEDLM [HTLV-1 nonamer peptide],0%
13,LPEDCLPTT [HTLV-1 nonamer peptide],52.2%
14,LPTTLFQPA [HTLV-1 nonamer peptide from Tax],119.5%
15,LTPPITHTT [HTLV-1 nonamer peptide],0%
16,LVEELVDGL [HTLV-1 nonamer peptide],0%
17,MQELGIDGY [HTLV-1 nonamer peptide],48.1%
18,QAAPGSPQF [HTLV-1 nonamer peptide],86.5%
19,WALPELQAL [HTLV-1 nonamer peptide],73.45%
20,WPLLPHVIF [HTLV-1 nonamer peptide],49.66%
21,WTFTDGTPM [HTLV-1 nonamer peptide],137.29%
22,WTINHLNVL [HTLV-1 nonamer peptide],1.04%
23,YILWDKQIL [HTLV-1 nonamer peptide],0%
24,YISQDFLNM [HTLV-1 nonamer peptide],0%

# Biological target: T1, HLA class I molecule A*0201 (Homo sapiens, UniProt P04439, D140Y/D185E/D98H/E176V/E277Q/G131W/G231S/I119V/I121R/I166T/I218V/L300P/L318F/N151K/N90K/P208A/P217A/Q86G/Q94H/R138H/R169H/T345S)
# T1 construct: purchased ProImmune Ltd., Oxford, UK
# Test: not given
# Assay type: binding
# Conditions: REVEAL assay, assembly of peptide-HLA complex by ELISA with conformation-dependent anti-HLA antibody, relative to positive control peptide for that allele, comparable within an allele only
row,Sequence,"Score (experimentally measured binding affinity, % binding compared to control peptide)"
1,AAGAALIPV [HTLV-1 nonamer peptide],34.35%
2,ALLGEIQWV [HTLV-1 nonamer peptide from Pol],84.64%
3,ELVDGLLSL [HTLV-1 nonamer peptide],25.11%
4,FMQTIRLAV [HTLV-1 nonamer peptide from Gag],95.61%
5,GIDGYTRQL [HTLV-1 nonamer peptide],28.99%
6,ILIQTQAQI [HTLV-1 nonamer peptide],79.21%
7,ILPEDCLPT [HTLV-1 nonamer peptide],15.96%
8,KLLQEKEDL [HTLV-1 nonamer peptide],0%
9,LLITPVLQL [HTLV-1 nonamer peptide],114.87%
10,LLLDLPADI [HTLV-1 nonamer peptide],77.78%
11,LLQEKEDLM [HTLV-1 nonamer peptide],46.36%
12,LLQYLCSSL [HTLV-1 nonamer peptide],45.68%
13,LLYKISLTT [HTLV-1 nonamer peptide],78.05%
14,LMGEVNYWQ [HTLV-1 nonamer peptide],12.98%
15,LQYLCSSLV [HTLV-1 nonamer peptide],47.17%
16,LTPPITHTT [HTLV-1 nonamer peptide],31.05%
17,LVEELVDGL [HTLV-1 nonamer peptide],2.64%
18,QLDSLISEA [HTLV-1 nonamer peptide],52.07%
19,QLEGEVESL [HTLV-1 nonamer peptide],18.58%
20,QLGAFLTNV [HTLV-1 nonamer peptide],80.99%
21,QLLASAVLL [HTLV-1 nonamer peptide],100.23%
22,QLWLAAFAA [HTLV-1 nonamer peptide],64.37%
23,TLGQHLPTL [HTLV-1 nonamer peptide],54.56%
24,TLSFPDPGL [HTLV-1 nonamer peptide],0%
25,TLTAWQNGL [HTLV-1 nonamer peptide],54.64%
26,TLYRLHVWV [HTLV-1 nonamer peptide],73.87%
27,YILWDKQIL [HTLV-1 nonamer peptide],39%
28,YISQDFLNM [HTLV-1 nonamer peptide],10.48%
29,YLCSSLVAS [HTLV-1 nonamer peptide],42.17%
30,YLYQLSPPI [HTLV-1 nonamer peptide from Tax],132.52%

# Biological target: T2, HLA class I molecule A*2402 (Homo sapiens, UniProt P04439, D101N/D140Y/D185E/E176V/E190D/F33S/G103R/G107R/I119L/I121M/I306V/K335N/L105A/L180Q/L300P/N151K/N90K/Q86E/Q94H/R106L/R138H/R89G/T104I/T345S/V100E/W191G/Y123F)
# T2 construct: purchased ProImmune Ltd., Oxford, UK
# Test: not given
# Assay type: binding
# Conditions: REVEAL assay, assembly of peptide-HLA complex by ELISA with conformation-dependent anti-HLA antibody, relative to positive control peptide for that allele, comparable within an allele only
row,Sequence,"Score (experimentally measured binding affinity, % binding compared to control peptide)"
1,AWQNGLLPF [HTLV-1 nonamer peptide],92.6%
2,DLMGEVNYW [HTLV-1 nonamer peptide],62.28%
3,EKAVLDGLL [HTLV-1 nonamer peptide],0%
4,EYLKRKEEE [HTLV-1 nonamer peptide],0%
5,EYQQLWLAA [HTLV-1 nonamer peptide],2.7%
6,GYPGRVNEI [HTLV-1 nonamer peptide],82.68%
7,GYTRQLEGE [HTLV-1 nonamer peptide],35.37%
8,ICPINYSLL [HTLV-1 nonamer peptide],69.19%
9,IFSRSASPI [HTLV-1 nonamer peptide],62.41%
10,IWQGDITHF [HTLV-1 nonamer peptide],64.83%
11,KQIAEYLKR [HTLV-1 nonamer peptide],3.56%
12,KYKNTLYRL [HTLV-1 nonamer peptide],124.9%
13,KYLYHYLRT [HTLV-1 nonamer peptide],2.63%
14,KYTLQSYGL [HTLV-1 nonamer peptide],104.78%
